Holding throughout (experiment): NCI tumour cell line growth inhibition, 48 h
For test [1], the system named is PC-3.
In test [2] the test system is MDA-MB-231.
Test [3] has as its system COLO 205.
For test [4], the system named is SK-MEL-28.
For test [5], the system named is IGROV-1.
In test [6] the test system is OVCAR-4.
In test [7] the test system is Hs-578T.
Test [8] concerns TK-10.
Test [9] has as its system KM12.
Test [10] relates to OVCAR-5.
Test [11] concerns NCI/ADR-RES.
Test [12] concerns 786-0.
Test [13] relates to MDA-MB-435.
The subject of test [14] is RXF 393.
Test [15] relates to UACC-62.
Test [16] deals with A549.
In test [17] the test system is HCT-116.
The subject of test [18] is RPMI-8226.
In test [19] the test system is SK-MEL-5.
In test [20] the test system is SNB-75.

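Where inhibition never reached the appropriate level, the endpoint shown equals the highest concentration tested. Otherwise, values were interpolated linearly from a five-concentration, 48-hour dose response in 96-well plates. GI50 marks 50% less growth.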 Activity calls are given as the source filed them. Cut-off read from the data, not from the text of the source: active = GI50 up to about 1.1 µM and inactive = higher. Peptide text beside a SMILES is read from it. * marks the point of attachment. Cbz = O=C(OCc1ccccc1)*; NHNH2 = NN* Some results are limits rather than exact numbers.

Turning to `C[C@]12CC[C@H]3[C@@H](CC=C4C[C@@H](O)CC[C@@]43C)[C@@H]1C/C(=C\c1cccnc1)[C@@H]2O`, the GI50 in [1] was 30.7 µM (inactive); in test [2] it was 13.2 µM (inactive); in test [3] it was > 100 µM (inactive); in test [4], 32.1 µM (inactive); in test [5], 24.7 µM (inactive); in test [6], 4.68 µM (inactive). Moreover, the GI50 in test [7] is 6.21 µM (inactive); in [8], 19.6 µM (inactive); in test [9] it was > 100 µM (inactive); in test [10], 41.4 µM (inactive); in test [11], 11.8 µM (inactive); in test [12], 19 µM (inactive). Further, the GI50 in test [13] was > 100 µM (inactive); in test [14], 15 µM (inactive); in test [15], 7.96 µM (inactive); in test [16], 7.83 µM (inactive); in [17], 25 µM (inactive); in test [18], > 100 µM (inactive).
With `COc1ccc(C[C@H]2COC(=O)[C@@H]2Cc2ccccc2)cc1OC`, the GI50 in [1], in [2], in test [4], in test [5], in test [7] and in test [8] was > 100 µM (inactive) throughout. In addition, the GI50 in test [9], in [10], in test [11], in test [19], in [12] and in test [16] was > 100 µM (inactive) in each case. For the same molecule, the GI50 in test [17] and in test [18] was > 100 µM (inactive) each time.
In the case of `c1ccc2c(c1)Sc1ccccc1N2CCCN1c2ccccc2Sc2ccccc21`, the GI50 in [1] is > 100 µM (inactive); in [2] it was > 100 µM (inactive); in test [3], 52.6 µM (inactive); in test [4] it was > 100 µM (inactive); in test [5], > 100 µM (inactive); in test [6], 36.1 µM (inactive). In addition, the GI50 in test [7] is 41.2 µM (inactive); in test [8], > 100 µM (inactive); in [9] it was > 100 µM (inactive); in [10] it was > 100 µM (inactive); in [11], 69.8 µM (inactive); in test [19], > 100 µM (inactive). Moreover, the GI50 in test [12] was 20.2 µM (inactive); in [13] it was 58.9 µM (inactive); in test [14] it was 78.5 µM (inactive); in test [15] it was > 100 µM (inactive); in test [16] it was > 100 µM (inactive); in test [17] it was 55.5 µM (inactive).
Consider `CCOC(=O)/C=C/C(=O)O/C=C/[N+](=O)[O-]`, for which the GI50 in test [2], in [3], in test [5], in [7], in [8] and in test [9] was > 100 µM (inactive) throughout. The GI50 in test [10], in [20], in test [11], in test [19], in test [12] and in test [13] was > 100 µM (inactive) throughout. Besides, the GI50 in test [14], in test [15], in [17] and in [18] was > 100 µM (inactive) throughout.
Regarding `COC(=O)CC(NC(=O)OCc1ccccc1)C(=O)NC(CC(=O)OC)C(=O)NC(CC(=O)OC)C(=O)NC(CC(=O)OC)C(=O)NC(CC(=O)OC)C(=O)NC(CC(=O)OC)C(=O)NN` (centres undefined) (Cbz-D(OMe)D(OMe)D(OMe)D(OMe)D(OMe)D(OMe)-NHNH2; configuration not given here), the GI50 in test [1], in test [2], in test [3], in test [4], in [5] and in test [6] was > 100 µM (inactive) throughout. The GI50 in test [7], in [8], in test [9], in test [10], in test [20] and in test [19] was > 100 µM (inactive) throughout. In addition, the GI50 in test [12], in test [13], in test [15], in test [17] and in test [18] was > 100 µM (inactive) throughout.
Consider `O=C1NC(N2CCCCC2)=N/C1=C\c1cccs1`, for which the GI50 in test [1], in test [2], in [3], in test [4], in [5] and in test [6] was > 100 µM (inactive) throughout. In addition, the GI50 in [7], in test [8], in [9], in [10], in test [11] and in test [12] was > 100 µM (inactive) throughout. Further, the GI50 in test [13], in test [14], in [15], in [16], in [17] and in [18] was > 100 µM (inactive) throughout.
Regarding `COc1ccc(C(NS(=O)(=O)c2ccc(C)cc2)c2c(C(CBr)OC)c3ccccc3n2S(=O)(=O)c2ccccc2)cc1OC` (centres undefined), the GI50 is > 100 µM (inactive) in test [1]; 52.8 µM (inactive) in test [2]; > 100 µM (inactive) in test [3]; > 100 µM (inactive) in test [4]; > 100 µM (inactive) in [5]; > 100 µM (inactive) in test [6]. The GI50 in test [7] is > 100 µM (inactive); in [8], > 100 µM (inactive); in [9], > 100 µM (inactive); in test [10], > 100 µM (inactive); in test [20], 34.7 µM (inactive); in [11], > 100 µM (inactive). Moreover, the GI50 in [19], in test [12], in test [13], in [14], in test [15] and in [16] was > 100 µM (inactive) in each case. Moreover, in test [17], the GI50 was > 100 µM (inactive).
For the molecule `Cn1c(=O)c2nc(CCCCC(=O)O)[nH]c2n(C)c1=O`, the GI50 in [1] is > 100 µM (inactive); in test [2], > 100 µM (inactive); in [4], > 100 µM (inactive); in test [5] it was 61.7 µM (inactive); in test [6], > 100 µM (inactive); in test [7] it was 68.5 µM (inactive). Further, the GI50 in [8], in [9], in test [10], in [20], in test [11] and in test [19] was > 100 µM (inactive) each time. The GI50 in test [12], in test [13], in [14], in test [15], in test [16] and in test [17] was > 100 µM (inactive) in each case.
Regarding `Cc1ccc(S(=O)(=O)NC(=O)NCCC(=O)O)cc1`, the GI50 in test [1], in [2], in [3], in [4], in test [5] and in test [6] was > 100 µM (inactive) each time. For the same molecule, the GI50 in [7], in test [8], in test [9], in test [10], in test [20] and in test [19] was > 100 µM (inactive) throughout. For the same molecule, the GI50 in test [12], in test [14], in [15], in test [16], in [17] and in test [18] was > 100 µM (inactive) in each case.
Take `Cc1ccc(C(=O)O)c(/C=C2\Cc3ccc(C)cc3C2=O)c1`: the GI50 in test [1] is 48.8 µM (inactive); in [3], 51.4 µM (inactive); in test [4] it was 78.9 µM (inactive); in test [5] it was > 100 µM (inactive); in test [6], 50.5 µM (inactive); in test [7], 64.3 µM (inactive). Moreover, the GI50 was > 100 µM (inactive) in test [8]; 61.4 µM (inactive) in test [9]; 28.4 µM (inactive) in test [10]; 34 µM (inactive) in test [20]; 71.8 µM (inactive) in [11]; 25.1 µM (inactive) in [19]. For the same molecule, the GI50 was 62.2 µM (inactive) in test [12]; 38 µM (inactive) in [13]; 42.3 µM (inactive) in test [14]; 69.2 µM (inactive) in [15]; 91.2 µM (inactive) in test [16]; 44.2 µM (inactive) in test [17]. Also, the GI50 in test [18] is 19.5 µM (inactive).
In the case of `CC1(C)N=C(N)N=C(N)N1c1cccc(Cl)c1`, the GI50 was > 100 µM (inactive) in test [1]; 61.8 µM (inactive) in [2]; 5.35 µM (inactive) in [3]; > 100 µM (inactive) in [4]; 4.93 µM (inactive) in [5]; > 100 µM (inactive) in test [6]. The GI50 in test [7] was > 100 µM (inactive); in [8] it was 91.2 µM (inactive); in test [9] it was 7.98 µM (inactive); in test [10] it was 9.12 µM (inactive); in test [20] it was 25.6 µM (inactive); in [11], 0.681 µM (active). The GI50 in [19] was 22.4 µM (inactive); in test [12], 0.585 µM (active); in test [13], 0.604 µM (active); in [14], > 100 µM (inactive); in test [15] it was 2.88 µM (inactive); in test [16], 2.41 µM (inactive). In test [17], the GI50 is 0.461 µM (active).
